Experimental data as given in patent publication US20060194837A1, “Tetrahydroisoquinoline compounds” (priority 2004, published 2006).
Like-named read-outs stand apart in the source and are kept apart here.

Key:
[1] = target: T1, human H3 receptor (Homo sapiens, UniProt Q9Y5N1); experiment: Cyclic AMP accumulation (β-galactosidase reporter, Schild analysis); type: cell-based; details: histamine agonist, forskolin 5 μM, Schild regression of pEC50 values
T1 construct: expressed in transfected cells
T1 sequence (Q9Y5N1 whole entry): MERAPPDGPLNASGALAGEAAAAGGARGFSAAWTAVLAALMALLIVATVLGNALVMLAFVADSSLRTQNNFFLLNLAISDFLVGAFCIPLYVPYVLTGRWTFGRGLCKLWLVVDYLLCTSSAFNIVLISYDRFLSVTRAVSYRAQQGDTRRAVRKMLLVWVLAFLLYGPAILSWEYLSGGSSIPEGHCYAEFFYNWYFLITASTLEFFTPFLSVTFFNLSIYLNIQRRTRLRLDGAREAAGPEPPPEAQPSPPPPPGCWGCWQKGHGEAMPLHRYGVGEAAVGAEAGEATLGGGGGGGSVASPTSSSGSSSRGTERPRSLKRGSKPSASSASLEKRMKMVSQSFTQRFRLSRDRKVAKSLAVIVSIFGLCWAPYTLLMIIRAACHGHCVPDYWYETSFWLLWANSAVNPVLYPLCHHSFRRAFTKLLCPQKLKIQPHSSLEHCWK
Experimental: Sublines of SK-N-MC cells were created that expressed a reporter construct and the human H3 receptor. The reporter gene (β-galactosidase) is under the control of multiple cyclic AMP responsive elements. In 96-well plates, histamine was added directly to the cell media followed 5 min later by an addition of forskolin (5 μM final concentration). When appropriate, antagonists were added 10 min prior to agonist addition. After a 6-h incubation at 37° C., the media was aspirated and the cells washed with 200 μL of phosphate-buffered saline followed by a second aspiration. Cells were lysed with 25 μL 0.1× assay buffer (10 mM Na-phosphate, pH 8, 0.2 mM MgSO4, 0.01 mM MnCl2) and incubated at rt for 10 min. […] Color was developed using 25 μL of 1 mg/mL substrate solution (chlorophenolred β-D galactopyranoside; Roche Molecular Biochemicals, Indianapolis, In.).

[2] = target: T2, Rat SERT (Rattus norvegicus, UniProt P31652); experiment: Rat brain SERT binding ([3H]-citalopram displacement); details: rat brain membranes without cerebellum, 0.6 nM [3H]-citalopram, 60 min at 25° C.
T2 construct: A rat brain without cerebellum (Zivic Laboratories, Inc.—Pittsburgh, Pa.) was homogenized; tissue Zivic Laboratories, Inc; host or cells: rat brain without cerebellum, membranes
T2 sequence (P31652 whole entry): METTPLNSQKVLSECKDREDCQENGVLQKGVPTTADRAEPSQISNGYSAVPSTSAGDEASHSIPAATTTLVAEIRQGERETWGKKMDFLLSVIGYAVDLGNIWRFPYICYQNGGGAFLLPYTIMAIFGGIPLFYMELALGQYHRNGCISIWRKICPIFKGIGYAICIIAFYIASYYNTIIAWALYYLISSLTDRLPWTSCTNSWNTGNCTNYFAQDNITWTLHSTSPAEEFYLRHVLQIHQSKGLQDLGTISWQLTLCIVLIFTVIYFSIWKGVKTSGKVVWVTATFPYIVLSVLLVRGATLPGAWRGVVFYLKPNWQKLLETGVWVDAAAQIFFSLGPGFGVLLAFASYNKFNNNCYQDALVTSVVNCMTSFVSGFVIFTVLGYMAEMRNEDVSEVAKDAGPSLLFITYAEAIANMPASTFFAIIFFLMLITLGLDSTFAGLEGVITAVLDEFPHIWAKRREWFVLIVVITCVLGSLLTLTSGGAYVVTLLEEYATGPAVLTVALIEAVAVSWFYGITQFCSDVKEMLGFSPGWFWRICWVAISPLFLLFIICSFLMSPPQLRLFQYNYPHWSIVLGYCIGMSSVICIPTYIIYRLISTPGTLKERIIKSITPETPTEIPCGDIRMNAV
Experimental: The supernatant was removed and re-centrifuged at 15,000 rpm for 30 min. […] Membranes were incubated with 0.6 nM [^3H]-Citalopram plus/minus test compounds for 60 min at 25° C. and harvested by rapid filtration over GF/C glass fiber filters (pretreated with 0.3% polyethylenimine) followed by four washes with ice-cold buffer.

[3] = target: T3, human SERT (Homo sapiens, UniProt P31645); experiment: Human SERT binding (3H-citalopram displacement); details: HEK293 membranes expressing human SERT, rt 1 h
T3 construct: expressed in transfected cells; host or cells: HEK293 membranes
T3 sequence (P31645 whole entry): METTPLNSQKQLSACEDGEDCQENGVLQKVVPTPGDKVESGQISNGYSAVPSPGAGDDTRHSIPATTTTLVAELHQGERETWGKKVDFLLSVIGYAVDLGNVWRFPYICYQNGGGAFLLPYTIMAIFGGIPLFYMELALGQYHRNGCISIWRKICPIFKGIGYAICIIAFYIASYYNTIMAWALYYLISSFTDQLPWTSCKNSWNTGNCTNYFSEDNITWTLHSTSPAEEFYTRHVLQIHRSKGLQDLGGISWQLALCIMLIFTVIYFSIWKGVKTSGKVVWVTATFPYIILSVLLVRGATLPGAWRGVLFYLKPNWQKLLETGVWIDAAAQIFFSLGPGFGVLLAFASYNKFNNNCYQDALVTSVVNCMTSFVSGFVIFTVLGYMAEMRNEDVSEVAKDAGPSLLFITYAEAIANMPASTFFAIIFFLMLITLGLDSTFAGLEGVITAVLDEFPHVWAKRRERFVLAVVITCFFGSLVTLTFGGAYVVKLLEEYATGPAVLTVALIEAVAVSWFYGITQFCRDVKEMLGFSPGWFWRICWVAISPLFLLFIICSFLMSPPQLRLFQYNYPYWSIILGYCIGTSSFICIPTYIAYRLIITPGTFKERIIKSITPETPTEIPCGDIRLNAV
Experimental: Homogenized HEK293 (Human Embryonic Kidney) membranes expressing the human SERT were incubated with ^3H-citalopram (SERT) at rt for 1 h in 50 mM Tris, 120 mM NaCl, 5 mM KCl (pH 7.4). […] The membranes were washed and the radioactivity was counted as above.

[4] = target: T1, human H3 receptor; experiment: H3 receptor binding (N-[3H]-α-methylhistamine displacement); details: membranes of SK-N-MC cells expressing cloned human H3 receptor, 0.8 nM N-[3H]-α-methylhistamine, 60 min at 25° C.
[5] = SK-N-MC cells expressing human H3 receptor and CRE-β-galactosidase reporter, read-out: pA2 (converted)
[6] = pA2, SK-N-MC cells expressing human H3 receptor and CRE-β-galactosidase reporter

Kb [1, 5] [nM]	Ki ([2]; read-out: Rat SERT Ki) [nM]	Ki [3] [nM]	Ki [4] [nM]	Compound	Kb [1, 6] [nM]	Ki ([2]; Rat SERT Ki (nM)) [nM]
2	47	158	5	CN1Cc2cc(CCCCN3CCCCC3)ccc2C(c2cccnc2)C1 (stereo not drawn) [Example 273, 2-Methyl-7-(4-piperidin-1-yl-butyl)-4-pyridin-3-yl-1,2,3,4-tetrahydro-isoquinoline]		
7.94	6	9	10	CSc1ccc(C2CN(C)Cc3cc(OCC4CN(C(C)C)C4)ccc32)cc1 (stereo not drawn) [Example 236, 7-(1-Isopropyl-azetidin-3-ylmethoxy)-2-methyl-4-(4-methylsulfanyl-phenyl)-1,2,3,4-tetrahydro-isoquinoline]		
1.26	6	5	3	COc1ccc(C2CN(C)Cc3cc(OCC4CCN(C(C)C)CC4)ccc32)cc1 (stereo not drawn) [Example 83, 7-(1-Isopropyl-piperidin-4-ylmethoxy)-4-(4-methoxy-phenyl)-2-methyl-1,2,3,4-tetrahydro-isoquinoline]		
1.26	5	4	3	COc1ccc(C2CN(C)Cc3cc(C#CCCN4CCCCC4)ccc32)cc1 (stereo not drawn) [Example 275, 4-(4-Methoxy-phenyl)-2-methyl-7-(4-piperidin-1-yl-but-1-ynyl)-1,2,3,4-tetrahydro-isoquinoline]		
0.794	5	6	3	COc1cccc(C2CN(C)Cc3cc(OCCCN4CCC(F)CC4)ccc32)c1 (single isomer, unassigned) [Example 45B, 7-[3-(4-Fluoro-piperidin-1-yl)-propoxy]-4-(3-methoxyphenyl)-2-methyl-1,2,3,4-tetrahydro-isoquinoline]		
3.98	8	4	7	COc1ccc(C2CN(C)Cc3cc(OC[C@H]4CN(C(C)C)CCO4)ccc32)cc1 (single isomer, unassigned) [Example 256B, 7-(4-Isopropyl-morpholin-2R-ylmethoxy)-4-(4-methoxy-phenyl)-2-methyl-1,2,3,4-tetrahydro-isoquinoline]		
6.31	3	12	17	CN1Cc2cc(OCCCN3CCOCC3)ccc2C(c2ccc(OC(F)F)cc2)C1 (stereo not drawn) [Example 214, 4-(4-Difluoromethoxy-phenyl)-2-methyl-7-(3-morpholin-4-yl-propoxy)-1,2,3,4-tetrahydro-isoquinoline]		
1	4	3	2	COc1ccc(C2CN(C)Cc3cc(OCCCN4CCCC(O)C4)ccc32)cc1 (mixture of isomers) [Example 20, 1-{3-[4-(4-Methoxy-phenyl)-2-methyl-1,2,3,4-tetrahydro-isoquinolin-7-yloxy]-propyl}-piperidin-3-ol]		
12.6	2	4	9	COc1ccc(C2CN(C)Cc3cc(OCCCN4CCC(O)CC4)ccc32)cc1 (stereo not drawn) [Example 21, 1-{3-[4-(4-Methoxy-phenyl)-2-methyl-1,2,3,4-tetrahydro-isoquinolin-7-yloxy]-propyl}-piperidin-4-ol]		
0.398	2	5	0.6	COc1ccc(C2CN(C)Cc3cc(OCCCN4[C@H](C)CC[C@H]4C)ccc32)cc1 (stereo partly drawn) [Example 11, 7-[3-((2R,5R)-trans-Dimethyl-pyrrolidin-1-yl)-propoxy]-4-(4-methoxy-phenyl)-2-methyl-1,2,3,4-tetrahydro-isoquinoline]		
0.126	48	160	1	CN1Cc2cc(OCCCN3CCCCC3)ccc2C(c2cccnc2)C1 (stereo not drawn) [Example 59, 2-Methyl-7-(3-piperidin-1-yl-propoxy)-4-pyridin-3-yl-1,2,3,4-tetrahydro-isoquinoline]		
5.01	6	8	4	COc1ccc(C2CN(C)Cc3cc(OCCCN4CCC(F)(F)CC4)ccc32)cc1 (stereo not drawn) [Example 8, 7-[3-(4,4-Difluoro-piperidin-1-yl)-propoxy]-4-(4-methoxy-phenyl)-2-methyl-1,2,3,4-tetrahydro-isoquinoline]		
0.1	22	53	0.9	CN1Cc2cc(OCCCN3CCCCC3)ccc2C(c2ccsc2)C1 (stereo not drawn) [Example 57, 2-Methyl-7-(3-piperidin-1-yl-propoxy)-4-thiophen-3-yl-1,2,3,4-tetrahydro-isoquinoline]		
5.01	4	6	6	COc1ccc(C2CN(C)Cc3cc(OCCCN4CCC(C#N)CC4)ccc32)cc1 (single isomer, unassigned) [Example 37B, 1-{3-[4-(4-Methoxy-phenyl)-2-methyl-1,2,3,4-tetrahydro-isoquinolin-7-yloxy]-propyl}-piperidine-4-carbonitrile]		

Compound	Kb [1, 5] [nM]	Ki ([2]; read-out: Rat SERT Ki) [nM]	Ki [3] [nM]	Ki [4] [nM]	Kb [1, 6] [nM]	Ki ([2]; Rat SERT Ki (nM)) [nM]
COc1ccc(C2CN(CCF)Cc3cc(OCCCN4CCCCC4)ccc32)cc1 (stereo not drawn) [Example 72, 2-(2-Fluoro-ethyl)-4-(4-methoxy-phenyl)-7-(3-piperidin-1-yl-propoxy)-1,2,3,4-tetrahydro-isoquinoline]		15	29	1	0.794	
CN1Cc2cc(OCCCN3CCOCC3)ccc2C(c2ccc(Cl)c(Cl)c2)C1 (stereo not drawn) [Example 77, 4-(3,4-Dichloro-phenyl)-2-methyl-7-(3-morpholin-4-yl-propoxy)-1,2,3,4-tetrahydro-isoquinoline]		27	28	3	20	
COc1ccc(C2CN(C)Cc3cc(OCCCN4CC[C@@H](N(C)C)C4)ccc32)cc1 (stereo in doubt) [Example 10, (1-{3-[4-(4-Methoxy-phenyl)-2-methyl-1,2,3,4-tetrahydro-isoquinolin-7-yloxy]-propyl}-pyrrolidin-3-yl)-dimethyl-amine]	3.98	4	5	1		
CN1Cc2cc(OCCCN3CCCCC3)ccc2C(c2ccc(Cl)c(Cl)c2)C1 (stereo not drawn) [Example 76, 4-(3,4-Dichloro-phenyl)-2-methyl-7-(3-piperidin-1-yl-propoxy)-1,2,3,4-tetrahydro-isoquinoline]			9	5	3.98	11
